Assays:
[1] = cited from earlier work; for terminal elimination half-life: the drug and its metabolite, ref Ezzet et al., 2001
[2] = Pharmacokinetics of total EZE in plasma, single-dose three-period crossover study, EZE alone vs ATO–EZE combination; type: in vivo, human; conditions: EZE 10 mg coadministered with ATO 80 mg; bioequivalence-based hypothesis
Protocol: Thirty six healthy Mexicans volunteers of both gender who were between the ages of 18 and 45 (mean ± SEM: 24.71 ± 0.03 years), had heights between 140.0 and 190.0 cm (163.0 ± 0.005 cm), and weighed between 43.50 and 79.50 kg (62.15 ± 1.9 kg) were enrolled in the study. The study protocol was approved by an independent ethics committee as well as by the regulatory authority in Mexico (COFEPRIS), and it was conducted following the ethical principles described in the Declaration of Helsinki. […]
For the determination of both molecules were developed an analytical method, where only once plasma processing is used to obtain both molecules, but the quantification of the analytes was performed on two separate injections ATO in positive electrospray ionization ESI (+) mode and EZE in negative electrospray ionization ESI (-) mode. […]
Chromatographic analysis was performed on UPLC-MS/MS system consisting of Acquity UPLC coupled to a tandem mass spectrometry detector XEVO-TQS (Waters, USA) and Acquity UPLC BEH C18 (1.7 μm, 2.1 × 100 mm) column (Waters, USA). […] MRM data were acquired and analyzed through MassLynx software (Waters, USA). […]

[3] = test system: major drug metabolizing enzymes (CYP450); design: method as in van Heek and Davis, 2002; conditions: ref van Heek and Davis, 2002; cited from earlier work
[4] = cited from earlier work
[5] = test system: cholesterol and triglyceride levels; conditions: cited from earlier work
[6] = oral administration, ref van Heek et al., 2000, Patrick et al., 2002, Malloy and Kane, 2007, Mahley and Bersot, 2008
[7] = dose of 10 mg, ref Kosoglou et al. (2002)
[8] = hyperlipidemic patients, dose dependent, ref Nawrocki et al., 1995, Heinonen et al., 1996

| SMILES | time of first peak blood level (dual peak, enterohepatic recirculation) [1, 6] | time of second peak blood level (dual peak, enterohepatic recirculation) [1, 6] | terminal elimination half-life [1] | pharmacokinetic drug–drug interaction (on EZE) [2] | Cmax of EZE [1, 7] | area under the curve to the end point of EZE [1, 7] | fraction biotransformed into glucuronide active metabolite ([1]; ref Kosoglou et al. (2002)) | effect on the activity of major drug metabolizing enzymes (CYP450) [3] | intra-subject variability ([4]; ref European Medicines Agency [EMEA] (2010)) | share of circulating inhibitory activity for HMG-CoA reductase attributed to active metabolites (ortho- and parahydroxy ATO) ([4]; ref Pfizer Inc. Lipitor®, 2009) | reduction of colesterol and triglycerides, significantly larger than equivalent doses of other statin drugs ([5]; P ≤ 0.01, ref Jones et al., 1998) | lowering of cholesterol levels [5, 8] | lowering of triglyceride levels [5, 8] |
| --- | --- | --- | --- | --- | --- | --- | --- | --- | --- | --- | --- | --- | --- |
| O=C(O)[C@H]1O[C@@H](Oc2ccc([C@@H]3[C@@H](CC[C@H](O)c4ccc(F)cc4)C(=O)N3c3ccc(F)cc3)cc2)[C@H](O)[C@@H](O)[C@@H]1O [EZE-G] | 4 to 6 h | 10 to 12 h | 20 to 30 h | – | – | – | – | – | – | – | – | – | – |
| O=C1[C@H](CC[C@H](O)c2ccc(F)cc2)[C@@H](c2ccc(O)cc2)N1c1ccc(F)cc1 [EZE, Ezetimibe] | – | – | 20 to 30 h | no relevant pharmacokinetic drug–drug interaction | 64.2 to 73.6 ng/mL | 440 to 722 ng·h/mL | > 80% | no effect | – | – | – | – | – |
| CC(C)c1c(C(=O)Nc2ccccc2)c(-c2ccccc2)c(-c2ccc(F)cc2)n1CC[C@@H](O)C[C@@H](O)CC(=O)O [ATO, Atorvastatin] | – | – | – | – | – | – | – | – | > 30% | Approximately 70% | 38–51% | 25–61% | 9–61% |
